From PubChem BioAssay AID1259411 (Chemical Carcinogenesis Research Information System (CCRIS), 2018)
Activity calls are given as the source filed them. The rule behind the calls is not given here.

Test system: rodent carcinogenicity bioassays, tumor incidence
Test: CCRIS carcinogenicity studies
In short: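 Archive of carcinogenicity, mutagenicity, tumor promotion and tumor inhibition results drawn from journals, NCI reports and other sources, expert-reviewed; covers 1985-2011 and is no longer updated.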

For CN=[N+](C)[O-], the carcinogen call (Species: MOUSE, Strain/Sex: A/J/MALE,FEMALE, Route: INTRAPERITONEAL INJECTION, Dose: 5, 10 MG/KG BW ONCE A WEEK FOR 4 WKS, Tumor Site: Type of Lesion: COLON: TUMORS (ADENOMA), % OF TUMOR BEARING MICE WAS 10X HIGHER IN 10 MG/KG GROUP) was “active; positive; all animals given 20 mg/kg died”, the carcinogen call (Species: MOUSE, Strain/Sex: A/J/MALE,FEMALE, Route: INTRAPERITONEAL INJECTION, Dose: 10 MG/KG ONCE WEEKLY FOR 2, 4, 8 WKS, Tumor Site: Type of Lesion: COLON: ADENOMA) was “active; positive; response of approximately 25% with 2 doses to almost 100% at 4 or 8 d” and the carcinogen call (Species: MOUSE, Strain/Sex: A/J/MALE,FEMALE, Route: SUBCUTANEOUS INJECTION, Dose: 10 MG/KG BW ONCE A WK FOR 4 WK, Tumor Site: Type of Lesion: COLON: ADENOMA) was “active; positive; almost 80% incidence”. For the same molecule, the carcinogen call (Species: MOUSE, Strain/Sex: AKR/J/MALE,FEMALE, Route: INTRAPERITONEAL INJECTION, Dose: 10 MG/KG BW WEEKLY FOR 2, 4, 8 WKS (STUDY DURATION: 6 MO), Tumor Site: Type of Lesion: COLON: ADENOMAS) was “only 5% of animals at 4 wk treatment developed tumors”, the carcinogen call (Species: MOUSE, Strain/Sex: AKR/J/MALE,FEMALE, Route: SUBCUTANEOUS, Dose: 10 MG/KG BW WEEKLY FOR 4 WK (STUDY DURATION: 6 MO), Tumor Site: Type of Lesion: COLON: ADENOMA) was “only about 5% developed tumors” and the carcinogen call (Species: MOUSE, Strain/Sex: ICR/MALE, Route: SUBCUTANEOUS, Dose: 0, 0.3 MG/MOUSE IN SALINE 1/WK FOR 20 WK (STUDY DURATION: 36 WK), Tumor Site: Type of Lesion: COLON: ADENOMA OR ADENOCARCINOMA, ADENOMA OR ADENOCARCINOMA OR CARCINOMA, RECTUM: CARCINOMA, BLOOD VESSELS: ANGIOMA OR A, Tumor Site: Type of Lesion: COLON: ADENOMA OR ADENOCARCINOMA, ADENOMA OR ADENOCARCINOMA OR CARCINOMA, RECTUM: CARCINOMA, BLOOD VESSELS: ANGIOMA OR A) was “active; positive”. For the same molecule, the carcinogen call (Species: MOUSE, Strain/Sex: SWR/J/MALE,FEMALE, Route: INTRAPERITONEAL INJECTION, Dose: 10 MG/KG BW FOR 2, 4, OR 8 WKS, ONCE A WK (STUDY DURATION: 6 MO), Tumor Site: Type of Lesion: COLON: ADENOMA) was “active; positive- tumor incidence 30-100%”, the carcinogen call (Species: MOUSE, Strain/Sex: SWR/J/MALE,FEMALE, Route: SUBCUTANEOUS INJECTION, Dose: 10 MG/KG BW ONCE A WK FOR 4 WK, Tumor Site: Type of Lesion: COLON: ADENOMA) was “active; positive; response about 30%” and the carcinogen call (Species: RAT, Strain/Sex: F344/FEMALE, Route: INTRAVESICULAR, Dose: 0, 2 MG IN 0.2 ML ETHANOL: DEIONIZED WATER (1:3) 2/WK FOR 22 WK (TOTAL DOSE 1.2 MMOL) (STUDY DURATION: LIFESPAN), Tumor Site: Type of Lesion: COLON: TUMOR, ZYMBAL GLAND: TUMOR) was “active; positive”. The carcinogen call (Species: RAT, Strain/Sex: F344/FEMALE, Route: SUBCUTANEOUS, Dose: 8 MG/KG 1/WK FOR 10 WK, Tumor Site: Type of Lesion: COLON: ADENOMA, CARCINOMA, ADENOCARCINOMA) was “active; positive”, the carcinogen call (Species: RAT, Strain/Sex: F344/MALE, Route: ORAL, Dose: 0, 1.0, 4.0 MG/WK IN DRINKING WATER FOR 30 WK (STUDY DURATION: LIFETIME), Dose: 0, 1.0, 4.0 MG/WK IN DRINKING WATER FOR 30 WK (STUDY DURATION: LIFETIME), Tumor Site: Type of Lesion: LIVER: CARCINOMA, SARCOMA, KIDNEY: INTERSTITIAL CELL SARCOMA OR NEUROSARCOMA OR RENAL CARCINOMA, COLON: ADENOMA OR CARCI, Tumor Site: Type of Lesion: LIVER: CARCINOMA, SARCOMA, KIDNEY: INTERSTITIAL CELL SARCOMA OR NEUROSARCOMA OR RENAL CARCINOMA, COLON: ADENOMA OR CARCI) was “active; positive” and the carcinogen call (Species: RAT, Strain/Sex: F344/MALE, Route: ORAL, Dose: 0, 10, 40 MG/ML IN A NEUTRAL DEIONIZED DRINKING WATER SOLUTION 5 D/WK FOR 30 WK (TOTAL DOSE 30; 120 MG) (STUDY DURATION:, Dose: 0, 10, 40 MG/ML IN A NEUTRAL DEIONIZED DRINKING WATER SOLUTION 5 D/WK FOR 30 WK (TOTAL DOSE 30; 120 MG) (STUDY DURATION:, Tumor Site: Type of Lesion: LIVER: CARCINOMA, HEMANGIOSARCOMA, KIDNEY: TUMOR, COLON: ADENOCARCINOMA, ADENOMA, Tumor Site: Type of Lesion: LIVER: CARCINOMA, HEMANGIOSARCOMA, KIDNEY: TUMOR, COLON: ADENOCARCINOMA, ADENOMA) was “active; positive”. The carcinogen call (Species: RAT, Strain/Sex: SPRAGUE-DAWLEY/MALE, Route: SUBCUTANEOUS, Dose: 8 MG/KG 1/WK FOR 24 WK, Tumor Site: Type of Lesion: INTESTINES (LARGE AND SMALL): ADENOCARCINOMA) was “active; positive”, the carcinogen call (Species: RAT, Strain/Sex: STRAIN-BD, Route: SUBCUTANEOUS, Dose: >6 MG/KG ONCE, Tumor Site: Type of Lesion: COLON: ADENOCARCINOMA, KIDNEY: NEPHROBLASTOMA) was “active; positive” and the carcinogen call (Species: RAT, Strain/Sex: STRAIN-BD, Route: SUBCUTANEOUS, Dose: >6 MG/KG ONCE, Tumor Site: Type of Lesion: COLON: ADENOCARCINOMA, NERVOUS SYSTEM: NEUROBLASTOMA, KIDNEY: NEPHROBLASTOMA, Tumor Site: Type of Lesion: COLON: ADENOCARCINOMA, NERVOUS SYSTEM: NEUROBLASTOMA, KIDNEY: NEPHROBLASTOMA) was “active; positive”. For the same molecule, the carcinogen call (Species: RAT, Strain/Sex: WISTAR/MALE, Route: SUBCUTANEOUS, Dose: 0, 7.4 MG/KG IN 0.9% SALINE 1/WK FOR 10 WK ADMINISTERED TO RATS MAINTAINED ON NORMAL-PROTEIN (25% CASEIN), LOW-PROTEIN (, Tumor Site: Type of Lesion: COLON: TUMOR) was “active; positive”.
With CCO[Si](CCCOCC1CO1)(OCC)OCC (stereo not given) the carcinogen call (Species: MOUSE, Strain/Sex: C3H/MALE, Route: DERMAL, Dose: 0, 2 MG IN ACETONE 3/WK FOR DURATION OF STUDY (STUDY DURATION: LIFETIME)) was “inactive; negative”.
In the case of Cc1ccc(C)c(OCCCC(C)(C)C(=O)O)c1, the carcinogen call (Species: RAT, Strain/Sex: STRAIN-CD/MALE, Route: ORAL, Dose: 30, 300 MG/KG IN DIET FOR 2 YR, Tumor Site: Type of Lesion: LIVER: NEOPLASTIC NODULE, CARCINOMA, TESTES: INTERSTITIAL CELL TUMOR) is reported as “active; positive”.
With c1ccc2[nH]c(-c3cscn3)nc2c1 the carcinogen call (Species: MOUSE, Strain/Sex: CD-1/FEMALE, Route: ORAL, Dose: 0, 0.031, 0.125, 0.5% IN DIET FOR 78 WK (STUDY DURATION: 78 WK), Dose: 0, 0.031, 0.125, 0.5% IN DIET FOR 78 WK (STUDY DURATION: 78 WK)) was “inactive; negative”, the carcinogen call (Species: MOUSE, Strain/Sex: CD-1/MALE, Route: ORAL, Dose: 0, 0.031, 0.125, 0.5% IN DIET FOR 78 WK (STUDY DURATION: 78 WK), Dose: 0, 0.031, 0.125, 0.5% IN DIET FOR 78 WK (STUDY DURATION: 78 WK)) was “inactive; negative” and the carcinogen call (Species: MOUSE, Strain/Sex: ICR/MALE, Route: ORAL, Dose: 0, 0.8, 1.2, 1.6% IN DIET FOR 44 WK (STUDY DURATION: 44 WK), Dose: 0, 0.8, 1.2, 1.6% IN DIET FOR 44 WK (STUDY DURATION: 44 WK)) was “inactive; negative”. For the same molecule, the carcinogen call (Species: RAT, Strain/Sex: F344/FEMALE, Route: ORAL, Dose: 0, 0.05, 0.1, 0.2, 0.4% IN DIET FOR 104 WK (STUDY DURATION: 104 WK), Dose: 0, 0.05, 0.1, 0.2, 0.4% IN DIET FOR 104 WK (STUDY DURATION: 104 WK)) was “inactive; negative” and the carcinogen call (Species: RAT, Strain/Sex: F344/MALE, Route: ORAL, Dose: 0, 0.05, 0.1, 0.2, 0.4% IN DIET FOR 104 WK (STUDY DURATION: 104 WK), Dose: 0, 0.05, 0.1, 0.2, 0.4% IN DIET FOR 104 WK (STUDY DURATION: 104 WK)) was “inactive; negative”.
In the case of CC1CN(N=O)C(=O)NC1=O (stereo not given), the carcinogen call (Species: RAT, Strain/Sex: MRC-WISTAR/FEMALE, Route: ORAL, Dose: 0, 10 G TOTAL DOSE IN CITRATE BUFFER IN DRINKING WATER 5D/WK FOR 12 MO (STUDY DURATION: 2 YR)) is reported as “inactive; negative” and the carcinogen call (Species: RAT, Strain/Sex: MRC-WISTAR/MALE, Route: ORAL, Dose: 0, 1 G TOTAL DOSE IN CITRATE BUFFER IN DRINKING WATER 5D/WK FOR 12 MO (STUDY DURATION: 2 YR)) is reported as “inactive; negative”.
